Measured values as given in patent publication US10603335B2, “Cancer treatment combination compositions, methods and uses” (Board of Supervisors of Louisiana State University and …, priority 2016, dated 2020).

Legend:
PATX92 tissue slices = assay: Live Tissue Sensitivity Assay (LTSA), PATX92; format: cell-based; settings: 72 hours
Method: (§1) Animal experiment protocol was reviewed and approved by The University of Texas MD Anderson Cancer Center (Houston, Tex.) institutional review board and in accordance with the Guidelines for the Care and Use of Laboratory Animals published by the National Institutes of Health. PDXs were grown from cryopreserved early passages of PDXs in nude mice as described in previous publications (Kim M P, et al, Nat Protoc 2009; 4(11): 1670-80). Briefly, tumor samples stored in CryoStor™ CS10 storage medium were recovered and cut into about 2 mm3 fragments, soaked in Matrigel, and implanted into the subcutaneous space of Balb/c nude mice (5 mice/PDX). Tumors were harvested when they reach 1.5 cm in diameter for generating tissue slices for drug testing with quadruplicates.
(§2) About 100 tissue slices were produced from 1 tumorgraft with tissue slicer and arrayed in 96-well plates with previously established method (Roife D, et al, Clin Cancer Res 2016). […] Same volume of medium with 0.1% DMSO was added into control wells. After 72 hours, tissue viabilities were measured with PrestoBlue method. Viability inhibition will be calculated through normalization of viabilities of tissue slices treated with inhibitor against the viability of control (DMSO treated) slices. Inhibition of viability was further analyzed with t-test. […]

PATX50 tissue slices = assay: Live Tissue Sensitivity Assay (LTSA), PATX50; format: cell-based; settings: 72 hours
Method: as §1, §2

[1] = system: cleaved PARP, XIAP and cIAP2 in PATC53 cells; assay: Western blot of apoptosis markers, PATC53; format: cell-based
Method: PATC53 cells were treated as described and Western blot was perform in order to detect apoptosis markers (cleaved PARP) and inhibitors of apoptosis (XIAP and cIAP2) 24 h post-treatment. Actin was used as loading controls.
PATC53 cells were treated as presented and Western blot was perform in order to detect apoptosis markers (cleaved PARP) and inhibitors of apoptosis (XIAP and cIAP2) 48 h post-treatment. Actin was used as loading controls.
(§3) Pancreatic cancer cells were collected after trypsinization and seeded in 12-well plates for 24 h before treatments. Treatments were performed as described in the Figure legends. Following treatment whole-cell lysates were collected in Laemmli buffer and analyzed by Western blot. The following primary antibodies were used: cleaved PARP, c-IAP2, XIAP, cleaved Parp-1 (all from Cell Signaling), actin (Santa Cruz).

PATX153 tissue slices = assay: Live Tissue Sensitivity Assay (LTSA), PATX153; format: cell-based; settings: 72 hours
Method: as §1, §2

PATX55 tissue slices = assay: Live Tissue Sensitivity Assay (LTSA), PATX55; format: cell-based; settings: 72 hours
Method: as §1, §2

[2] = system: cleaved PARP, XIAP and cIAP2 in BxPC-3 cells; assay: Western blot of apoptosis markers and inhibitors of apoptosis, BxPC-3; format: cell-based; settings: for XIAP and c-IAP2 protein levels: 24 h; for apoptosis marker cleaved PARP: 24 h post-treatment, LHRH-curcumin 10-100 uM, gemcitabine 1-20 uM
Method: as §3, with “Pancreatic” for “Pancreatic cancer”, “treatment, whole cell” for “treatment whole-cell”, “used: XIAP, c-IAP2,” for “used:”, “Caspase-3” for “c-IAP2, XIAP, cleaved Parp-1”, “Cruz) and LHRHR (Abcam).” for “Cruz).”
Western blot analysis. Actin, GAPDH and Ponceau staining were used as loading controls. Gemcitabine was diluted in water. Curcumin and LHRH-curcumin were diluted in DMSO. Cells were treated as follows:
Western blot analysis. Actin, GAPDH and Ponceau staining were used as loading controls. Gemcitabine was diluted in water. Curcumin and LHRH-curcumin were diluted in DMSO.

PATX173 tissue slices = assay: Live Tissue Sensitivity Assay (LTSA), PATX173; format: cell-based; settings: 72 hours
Method: as §1, §2

PATX148 tissue slices = assay: Live Tissue Sensitivity Assay (LTSA), PATX148; format: cell-based; settings: 72 hours
Method: as §1, §2

[3] = system: Mia-PaCa-2 cancer cell xenografts; assay: Mia-PaCa-2 subcutaneous xenograft tumor growth; format: in vivo, SCID/bg mice; settings: IP
Method: Male SCID/bg mice (5 weeks old; Taconic Biosciences, NY) were housed in the standard mouse Plexiglas cages in a room maintained at constant temperature and humidity under a 12 h light and darkness cycle. The experimental protocol was reviewed and approved by the Institutional Animal Care and Use Committee at the LSUHSC Shreveport.
Mia-PaCa-2 cells were harvested from cell cultures after trypsinization. The cells were washed once in serum-free medium and re-suspended in HBSS. Only suspensions consisting of single cells with >90% viability were used for the injections. Mice were injected s.c. on the right hind flank with 5×10^6 MIA-PaCa cells (ATCC, VA) in 50% Matrigel/HBSS with 26 Ga syringes.
The vehicle treated group received an equivalent amount of PBS. Tumor volumes were measured with calipers once a week and body weights of mice were measured once a week. Tumor volumes were calculated by the formula: V(mm3)=(length×width*2)/2, in which width was the shortest measurement in millimeters. Mice were necropsied 10 days after the last treatment for the low dose treatment (day 35 after the randomization and day 55 from the tumor cell implantation) or 2 days after the last treatment for high dose treatment (day 28 after the randomization and 48 from the tumor cell implantation). Tumors were dissected, weighed and photographed.

PATX110 tissue slices = assay: Live Tissue Sensitivity Assay (LTSA), PATX110; format: cell-based; settings: 72 hours
Method: as §1, §2

Mia-PaCa-2 spheroids = assay: 3D spheroid growth (IncuCyte ZOOM), Mia-PaCa-2; format: cell-based, human; settings: for size of the spheroids: MiaPaca-2, gemcitabine 0.5, 1.0, 5.0 μM, LHRH-curcumin 10, 20 μM, 5 days
Method: A protocol that enables the growth of identical size single cancer cell spheroids in Matrigel in 96 well plates has been developed.
Panc-1 and Mia-Paca-2 cells were grown in 10% FBS DMEM. Cells were collected after trypsinization and resuspended in phenol-red free DMEM with 10% FBS. Cells were labeled with CellTracker Red (Life Techmologies) for 5 minutes. After labeling cells were washed with PBS and transfer into 96-well Corning 7007 ULA round bottom plates at 1,000 cells/well in 100 μl phenol-red free media with 10% FBS and 5% Matrigel. […] Spheroids were grown at 37° C. and 5% CO2 in IncuCyte ZOOM (Essen Bioscience). Images were acquired every 4 h for a period of 120 h post-treatment and software analysis was design to identify the red object in the well. The data were expressed as fold increase in spheroids size at the end of the treatment using the “average red object area in the well” as determined by the IncuCyte software analysis. Reproducibility was confirmed in three independent experiments. Spheroids grew at a uniform rate (FIG. 1).

[4] = curcumin, LHRH-curcumin 50 uM and 100 uM alone, gemcitabine alone
[5] = high doses: gemcitabine 100 mg/kg once a week, LHRH-curcumin 40 mg/kg twice a week, day 48
[6] = low doses: gemcitabine 50 mg/kg once a week, LHRH-curcumin 20 mg/kg twice a week, day 55

Q: What does the source list for `Nc1ccn([C@@H]2O[C@H](CO)[C@@H](O)C2(F)F)c(=O)n1` [gemcitabine, 2′,2′-difluoro 2′deoxycytidine, reference compound]?
A: tissue slice viability (PATX92 tissue slices; Gem 10 μM): 85.63; tissue slice viability (PATX50 tissue slices; Gem 10 μM): 104.96; response of PATC53 cells (apoptosis markers) ([1]; 24 h post-treatment): resistance; tissue slice viability (PATX153 tissue slices; Gem 10 μM): 96.86; tissue slice viability (PATX55 tissue slices; Gem 10 μM): 95.45; XIAP and c-IAP2 protein levels [2, 4]: doesn't affect XIAP and c-IAP2 levels; apoptosis marker cleaved PARP ([2]; curcumin): Low levels of cleaved PARP was detected; tissue slice viability (PATX173 tissue slices; Gem 10 μM): 89.87; tissue slice viability (PATX148 tissue slices; Gem 10 μM): 99.55; Tumor volume at necropsy [3, 5]: significantly reduced; Tumor volume at necropsy [3, 6]: significantly reduced; tissue slice viability (PATX110 tissue slices; Gem 10 μM): 100.20; size of the spheroids (Mia-PaCa-2 spheroids): decrease the size of the spheroids

Q: For `COc1cc(/C=C/C(=O)CC(=O)/C=C/c2ccc(OC(=O)CCCC(=O)NCCCC[C@@H](NC(=O)[C@H](Cc3ccc(O)cc3)NC(=O)[C@H](CO)NC(=O)[C@H](Cc3c[nH]c4ccccc34)NC(=O)[C@H](Cc3c[nH]cn3)NC(=O)[C@@H]3CCC(=O)N3)C(=O)N[C@@H](CC(C)C)C(=O)N[C@@H](CCCNC(=N)N)C(=O)N3CCC[C@H]3C(=O)NCC(N)=O)c(OC)c2)ccc1O` [LHRH-curcumin, [DLys6]-LHRH-Curcumin], which “Sensitivity To LHRH-C” value (PATX92 tissue slices; single agent) is on record?
A: Resistant

Q: What about the “Sensitivity To LHRH-C” value (PATX50 tissue slices; single agent) of the same compound?
A: Resistant

Q: What about the “apoptosis inhibitors (XIAP and cIAP2)” value ([1]; 48 h post-treatment, 30 μM) of the same compound?
A: Modest reduction of apoptosis inhibitors

Q: And the “Sensitivity To LHRH-C” value (PATX153 tissue slices; single agent)?
A: Sensitive (The tissue was defined as sensitive to the treatment if both p<0.05 and at least 30% of tissue slice viability on average was inhibited)

Q: What about the “Sensitivity To LHRH-C” value (PATX55 tissue slices; single agent) of the same compound?
A: Sensitive (The tissue was defined as sensitive to the treatment if both p<0.05 and at least 30% of tissue slice viability on average was inhibited)

Q: What about the “XIAP and c-IAP2 protein levels” value ([2]; 50 uM in the presence of gemcitabine (5 uM)) of the same compound?
A: down-regulated

Q: And the “XIAP and c-IAP2 protein levels” value [2, 4]?
A: down-regulated

Q: And the “apoptosis marker cleaved PARP” value ([2]; curcumin)?
A: initiate apoptosis as illustrated by the presence of cleaved PARP

Q: What about the “Sensitivity To LHRH-C” value (PATX173 tissue slices; single agent) of the same compound?
A: Resistant

Q: What about the “Sensitivity To LHRH-C” value (PATX148 tissue slices; single agent) of the same compound?
A: Resistant

Q: What about the “Tumor volume at necropsy” value [3, 5] of the same compound?
A: significantly reduced

Q: And the “Tumor volume at necropsy” value [3, 6]?
A: significantly reduced

Q: And the “Sensitivity To LHRH-C” value (PATX110 tissue slices; single agent)?
A: Sensitive (The tissue was defined as sensitive to the treatment if both p<0.05 and at least 30% of tissue slice viability on average was inhibited)

Q: And the “efficiency on spheroids growth, Panc-1 versus Mia-PaCa-2” value (Mia-PaCa-2 spheroids; 10, 20 and 30 μM, 120 h)?
A: more efficient on Panc-1 cells than Mia-PaCa-2 cells

Q: What about the “size of the spheroids” value (Mia-PaCa-2 spheroids) of the same compound?
A: decrease the size of the spheroids
